# Data published in paper PMC8500670, “A selective WDR5 degrader inhibits acute myeloid leukemia in patient-derived mouse models” (Science translational medicine, 2021).
# Like-named read-outs stand apart in the source and are kept apart here.
# Columns and labels:
# Assay in all cases: biochemical
# Design in all cases: protein methyltransferase selectivity panel, enzyme activity relative to DMSO controls, single concentration in duplicate
# [1] = target: T1, NSD3 (Homo sapiens, UniProt Q9BZ95); details: Substrate:=Nucleosomes
# T1 sequence (Q9BZ95 1-1437): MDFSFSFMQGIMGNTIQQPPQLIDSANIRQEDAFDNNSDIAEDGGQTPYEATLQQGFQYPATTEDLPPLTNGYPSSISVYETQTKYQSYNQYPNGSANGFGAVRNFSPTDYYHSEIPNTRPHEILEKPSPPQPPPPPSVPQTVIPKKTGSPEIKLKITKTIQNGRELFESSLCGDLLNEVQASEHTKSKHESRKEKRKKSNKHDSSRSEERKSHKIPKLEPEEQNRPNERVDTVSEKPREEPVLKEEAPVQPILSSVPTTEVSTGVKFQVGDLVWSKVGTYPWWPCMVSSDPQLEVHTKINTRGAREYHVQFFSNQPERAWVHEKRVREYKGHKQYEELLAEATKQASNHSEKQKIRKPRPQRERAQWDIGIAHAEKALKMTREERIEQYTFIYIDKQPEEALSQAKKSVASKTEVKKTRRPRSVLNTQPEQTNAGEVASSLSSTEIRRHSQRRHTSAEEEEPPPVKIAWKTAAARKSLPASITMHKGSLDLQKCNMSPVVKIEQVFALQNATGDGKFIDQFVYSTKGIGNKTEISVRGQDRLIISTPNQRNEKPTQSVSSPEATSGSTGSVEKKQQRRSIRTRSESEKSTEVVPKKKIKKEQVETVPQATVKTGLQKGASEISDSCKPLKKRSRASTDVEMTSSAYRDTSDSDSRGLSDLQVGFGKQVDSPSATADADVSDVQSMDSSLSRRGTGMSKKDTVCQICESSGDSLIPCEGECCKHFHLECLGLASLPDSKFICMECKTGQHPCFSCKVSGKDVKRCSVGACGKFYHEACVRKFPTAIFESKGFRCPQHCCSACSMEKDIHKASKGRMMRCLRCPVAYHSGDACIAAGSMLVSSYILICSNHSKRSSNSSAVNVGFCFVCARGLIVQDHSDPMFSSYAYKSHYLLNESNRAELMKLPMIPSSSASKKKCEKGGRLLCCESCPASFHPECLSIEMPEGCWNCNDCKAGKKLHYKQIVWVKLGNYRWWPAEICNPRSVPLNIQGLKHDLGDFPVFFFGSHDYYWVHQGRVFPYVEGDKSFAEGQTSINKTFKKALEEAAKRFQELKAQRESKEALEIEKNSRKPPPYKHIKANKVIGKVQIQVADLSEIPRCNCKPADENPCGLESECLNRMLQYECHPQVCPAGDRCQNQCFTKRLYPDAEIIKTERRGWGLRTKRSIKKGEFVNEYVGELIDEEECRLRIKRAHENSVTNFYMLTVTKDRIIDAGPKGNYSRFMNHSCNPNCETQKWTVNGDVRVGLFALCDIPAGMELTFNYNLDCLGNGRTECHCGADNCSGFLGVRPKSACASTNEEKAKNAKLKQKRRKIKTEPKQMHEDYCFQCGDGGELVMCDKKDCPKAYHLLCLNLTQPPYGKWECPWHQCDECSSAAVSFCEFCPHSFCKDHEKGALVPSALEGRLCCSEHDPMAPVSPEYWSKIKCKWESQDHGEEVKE
# Procedure: (§1) We next assessed selectivity of MS67 against 22 protein methyltransferases (table S2) and a broad panel of common drug targets including 45 kinases (table S3) and 44 G protein–coupled receptors (GPCR), ion channels, and transporters (table S4). […] We subsequently determined that MS67 had moderate binding affinity (Ki = 1.0 ± 0.8 μM) to Sigma 2 receptor (fig. S10).
# [2] = target: PRMT3 (Homo sapiens, UniProt O60678); details: Substrate:=Histone H4
# Sequence of PRMT3 (O60678 whole entry): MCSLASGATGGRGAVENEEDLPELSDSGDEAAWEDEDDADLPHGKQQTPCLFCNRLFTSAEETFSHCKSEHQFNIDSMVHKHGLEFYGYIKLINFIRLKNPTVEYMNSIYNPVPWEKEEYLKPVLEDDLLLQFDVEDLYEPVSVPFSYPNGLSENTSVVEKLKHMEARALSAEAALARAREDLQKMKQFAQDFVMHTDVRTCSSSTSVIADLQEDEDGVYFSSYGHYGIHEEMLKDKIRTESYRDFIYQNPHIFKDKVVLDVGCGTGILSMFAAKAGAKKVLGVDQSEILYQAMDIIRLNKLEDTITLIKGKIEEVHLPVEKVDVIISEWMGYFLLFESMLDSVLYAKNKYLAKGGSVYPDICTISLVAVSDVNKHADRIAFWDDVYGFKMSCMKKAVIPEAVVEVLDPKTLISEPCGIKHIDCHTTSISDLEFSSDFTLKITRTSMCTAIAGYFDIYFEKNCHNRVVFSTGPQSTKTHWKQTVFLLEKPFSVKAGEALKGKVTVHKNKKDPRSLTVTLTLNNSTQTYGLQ
# Procedure: as §1
# [3] = target: T2, PRMT4 (Homo sapiens, UniProt Q86X55); details: Substrate:=Histone H3
# T2 construct: gene CARM1
# T2 sequence (Q86X55 1-608): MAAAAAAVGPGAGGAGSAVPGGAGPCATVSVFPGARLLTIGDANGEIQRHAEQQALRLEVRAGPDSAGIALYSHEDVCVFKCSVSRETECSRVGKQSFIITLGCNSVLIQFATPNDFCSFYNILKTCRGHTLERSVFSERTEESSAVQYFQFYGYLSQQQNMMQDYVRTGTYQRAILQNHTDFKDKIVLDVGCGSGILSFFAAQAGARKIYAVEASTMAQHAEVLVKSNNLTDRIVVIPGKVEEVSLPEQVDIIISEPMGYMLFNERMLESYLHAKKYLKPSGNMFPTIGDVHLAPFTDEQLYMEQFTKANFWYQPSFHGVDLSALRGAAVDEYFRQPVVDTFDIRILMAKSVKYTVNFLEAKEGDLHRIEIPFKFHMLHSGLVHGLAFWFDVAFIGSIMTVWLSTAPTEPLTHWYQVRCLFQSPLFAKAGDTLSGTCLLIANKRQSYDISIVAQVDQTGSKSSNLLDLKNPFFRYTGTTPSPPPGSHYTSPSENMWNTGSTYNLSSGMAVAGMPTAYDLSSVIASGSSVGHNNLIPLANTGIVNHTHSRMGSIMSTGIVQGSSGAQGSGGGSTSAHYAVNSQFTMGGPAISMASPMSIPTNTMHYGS
# Procedure: as §1
# [4] = target: T3, SET7/9 (Homo sapiens, UniProt Q8WTS6); details: Substrate:=Core Histone
# T3 construct: gene SETD7
# T3 sequence (Q8WTS6 1-366): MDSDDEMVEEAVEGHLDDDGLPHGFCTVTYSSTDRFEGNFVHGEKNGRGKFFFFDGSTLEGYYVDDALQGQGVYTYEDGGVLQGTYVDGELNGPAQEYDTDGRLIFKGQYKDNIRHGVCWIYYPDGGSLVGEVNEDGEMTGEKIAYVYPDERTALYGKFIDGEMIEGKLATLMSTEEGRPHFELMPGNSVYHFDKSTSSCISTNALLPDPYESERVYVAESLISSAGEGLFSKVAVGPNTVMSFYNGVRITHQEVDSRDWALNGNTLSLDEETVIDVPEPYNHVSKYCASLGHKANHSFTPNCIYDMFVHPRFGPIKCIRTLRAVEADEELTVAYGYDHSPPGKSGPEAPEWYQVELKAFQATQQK
# Procedure: as §1
# [5] = read-out: Enzyme % Activity (relative to DMSO controls) / MS67 / 10 / Data 1:
# [6] = read-out: Enzyme % Activity (relative to DMSO controls) / MS67 / 10 / Data 2:
structure (smiles),measurement,setting,value
Cc1ncsc1-c1ccc([C@H](C)NC(=O)[C@@H]2C[C@@H](O)CN2C(=O)[C@@H](NC(=O)CNC(=O)c2ccc(F)c(-c3ccc(N4C[C@@H](C)N(C)[C@@H](C)C4)c(NC(=O)c4c[nH]c(=O)cc4C(F)(F)F)c3)c2)C(C)(C)C)cc1 [MS67],remaining activity at 10 µM,[1]; [5],136%
same,remaining activity at 10 µM,[1]; [6],145%
same,remaining activity at 10 µM,[2]; [5],92%
same,remaining activity at 10 µM,[2]; [6],102%
same,remaining activity at 10 µM,[3]; [5],107%
same,remaining activity at 10 µM,[3]; [6],98.9%
same,remaining activity at 10 µM,[4]; [5],99.7%
same,remaining activity at 10 µM,[4]; [6],92%
